Results reported in US9084782B2, “Chemical inhibitors of cholesterol biosynthesis and venous angiogenesis” (The Regents of the University of California, priority 2011, dated 2015).
“Also recorded” adds a separate entry of the source.

Columns and labels:
[1] = system: Tg(kdrl:GFP) zebrafish embryos; test: Caudal vein plexus (CVP) formation / venous angiogenesis in Tg(kdrl:GFP) zebrafish embryos; assay type: in vivo
Excerpt: Images of GFP expression in Tg(kdrl:GFP) embryos were acquired using a Zeiss SV-11 epifluorescence microscope. Confocal images were acquired using a Carl Zeiss Laser Scanning Systems LSM510 equipped with 20× air, 20× water or 40× water immersion objectives. For single time point confocal images, embryos were anesthetized with 0.01% tricaine and embedded in 1% agarose. When capturing time-lapse confocal movies, embryos were mounted in 3.5% methylcellulose (Sigma-Aldrich) and imaged for 5 hrs on a heated stage at 28.5° C. The images obtained were analyzed using the Zeiss LSM Image Brower version 4 and Image J.
A synthetic chemical library containing 168 compounds (Castellano et al., 2007) and 300 chemicals from Biomol International LP, consisting of 72 ion channel inhibitors (Cat No. 2805), 84 kinase/phosphatase inhibitors (Cat No. 2831), 84 orphan ligands (Cat No. 2825), and 60 endocannabinoids (Cat No. 2801) were screened. The synthetic small molecules were prepared through nucleophilic phosphine catalysis of allenoates (Zhu et al., 2003). Four Tg(kdrl:GFP) embryos were placed into each well of 96-well plates containing a 10 μM solution of each chemical compound dissolved in embryo buffer with 0.1% DMSO. The embryos were raised at 28.5° C. and examined for defects in blood vessel development at 1 and 2 days after treatment. Standard parameters such as numbers of somites and head to body angle were used to determine the stages of zebrafish embryos (Kimmel et al., 1995).
(§1) Aplexone treatment described in this study was carried out at a concentration of 10 μM starting at 10 hpf unless otherwise specified.
8 ng tnnt2 MO (Gene Tools) (Sehnert et al., 2002), 3 nl of 4 mM GGTI-2133 (Calbiochem), 3 nl of 5 mM L744,832 (Calbiochem) and 1 nl of 2M mevalonate (Sigma-Aldrich) were injected into 1-2 cell stage embryos.
The library of 168 compounds^24 prepared through the nucleophilic phosphine catalysis of allenes were screened using Tg(kdrl:GFP) zebrafish. Four embryos were placed in each well of 96-well plates containing a 10 uM solution of each chemical compound dissolved in embryo buffer with 0.1% DMSO. The embryos were raised at 28.5° C. and defects in blood vessel development were examined at 1 and 2 days after fertilization.

[2] = system: ephrinB2a, ephB4 and flt4; test: In situ hybridization for arterial and venous markers; assay type: in vivo, zebrafish; settings: 10 μM from 10 hpf, fixed at 24 hpf
Procedure: Untreated control embryos (A, C, E and A′, C′, E′) and embryos treated with 10 μM aplexone beginning at 10 hpf (B, D, F and B′, D′, F′) were fixed at 24 hpf. Arterial and venous fates were analyzed by in situ hybridization using ephrinB2a (A,A′,B,B′), ephB4 (C,C′,D,D′) and flt4 (E,E′,F,F′) probes. Arrowhead, dorsal aorta. Embryos were analyzed at higher magnification in the trunk in A′-F′, with regions of interest indicated by black boxes in A-F. Arrow, posterior cardinal vein.
To understand whether angiogenesis from arterial and venous ECs are under different genetic controls we screened a collection of small molecules for compounds that preferentially suppress angiogenesis from exclusively one cell type. In this screen, we used the primary ISV sprouts as the readout for arterial-derived angiogenesis, and the CVP and secondary ISV sprouts as indicators of venous-derived angiogenesis. We found one synthetic compound, aplexone, which has a lineage-dependent effect on angiogenesis. The spatial and temporal development of primary ISVs in the trunk is indistinguishable between 2-day-old control and aplexone-treated embryos (FIG. 1L-M′). […] Secondary ISVs are also absent in these embryos (FIG. 1L-M′).

HMGCR pathway = test: Cholesterol assay in embryo lysate (Amplex Red); assay type: in vivo, zebrafish
Procedure: The yolk was removed from embryos by vortexing in calcium-free Ringer's solution with 1 mM EDTA at 4° C. The embryos were then pelleted and washed with fresh calcium free Ringer's solution 5 times before being resuspended in cholesterol assay reaction buffer and were then lysed by sonication using a Sonifier 450 (Branson). Cholesterol levels in the embryo lysate were measured with an Amplex Red Cholesterol Assay Kit (Invitrogen) and Flex station II (Bucher Biotec). The total protein concentration of the embryo lysate was measured using a DC protein assay (Bio-Rad Laboratories) and SpectraMax plus (Molecular Devices).

HUVECs = test: Wound healing assay, HUVECs; assay type: cell-based, human
Procedure: (§2) HUVECs and HUAECs were purchased from VEC Technologies. Cells were cultured on 0.1% Gelatin-coated dishes in Medium 199 (Mediatech), supplemented with 15% Fetal Bovine Serum (ATCC), 48 μg/mL Endothelial Cell Growth Supplement (BD Biosciences), 64 μg/mL Heparin Sulfate (Sigma-Aldrich), 0.9 mM Sodium Pyruvate (Mediatech), 100 IU/ml Penicillin (Mediatech), and 100 μg/ml Streptomycin (Mediatech).
(§3) For the wound healing assay, cells were cultured in 24-well plates to confluence before being subjected to a 2-hour pre-treatment with either DMSO, aplexone, Rockout (Calbiochem) or NSC 23766 (TOCRIS Bioscience). After the pre-treatment, the monolayer of endothelial cells was scratched and the closure of the wound was measured after 8 hr. The images of wounds were taken at 0 and 8 hr after scratching and the area of the wound was measured using Image J. The migration distance (the width of the wound) was calculated by dividing the area by the length of the wound. Cells below passage seven were used in this study.

HUAECs = test: Wound healing assay, HUAECs; assay type: cell-based, human
Procedure: as §2, §3

zebrafish embryos = test: Overall phenotype of treated zebrafish embryos (body shape, circulation); assay type: in vivo
Procedure: (§4) A,B,C, Overall phenotype of control and aplexone-treated embryos at 30 hpf. A′,B′,C′, Vasculature in trunk. […] D-E, Germ cells in control and aplexone treated embryos at 24 hpf were detected by in situ hybridization using the nanos probe. F, The percentage of embryos with ectopic primordial germ cells in control (n=26), 5 μM (n=13), and 10 μM (n=14) aplexone-treated embryos. […] I, The percentage of embryos with cardia bifida in control (n=16) and 10 μM-(n=17), 20 μM-(n=17) and 30 μM-(n=18) aplexone-treated embryos.
as §1

primordial germ cells = test: Primordial germ cell migration, in situ hybridization with nanos probe; assay type: in vivo, zebrafish; settings: 10 μM aplexone
Procedure: as §4

cardiomyocytes = test: Cardiomyocyte migration / heart tube formation in Tg(myl7:GFP) embryos; assay type: in vivo, zebrafish; settings: 30 μM aplexone
Procedure: as §4

Compound: CC(=O)C1=CCC(c2ccccc2)N(S(=O)(=O)c2ccc(C)cc2)C1 (stereo not shown) [aplexone]
- CVP formation at suboptimal level ([1]; 2 μM single agent): normal CVP
- formation of the CVP ([1]; 10 μM aplexone from 10 hpf): severely defective
- secondary ISVs (venous-derived sprouts) ([1]; 10 μM from 10 hpf, 2-day-old embryos): absent
- arterial (ephrin B2a) and venous (flt4, ephB4) marker expression [2]: could not distinguish aplexone-treated embryos from control embryos
- efficiency of cholesterol reduction compared with atorvastatin (HMGCR pathway; higher concentration (40 uL)): more efficient
- efficiency of cholesterol reduction compared with atorvastatin (HMGCR pathway; lower concentration (10 uL)): as efficient as atorvastatin
- embryonic cholesterol levels (HMGCR pathway; relative to 0.4% DMSO control): reduced embryonic cholesterol levels to a comparable degree as treatment with atorvastatin; also recorded: reduce cholesterol level significantly
- migration of HUVECs (HUVECs; 5 μM aplexone): sufficient to impede the migration of HUVECs
- migration of HUVECs (HUVECs; various aplexone concentrations, 8 hr after wound): inhibited
- HUAEC migration (HUAECs; 5 μM aplexone, 8 hr): unaffected
- impediment in HUAEC migration (HUAECs; 10 μM aplexone, p<0.05): 10%
- body shape (zebrafish embryos; 10 μM aplexone): relatively normal body shape
- embryo length (zebrafish embryos; 30 μM aplexone): shorter than control embryos
- blood circulation (zebrafish embryos; aplexone-treated embryos): lack blood circulation
- germ cell migration (primordial germ cells): defect in germ cell migration
- fusion of cardiac primordia / cardiomyocyte migration to midline (cardiomyocytes): defects in the fusion of the bilaterally positioned cardiac primordia; also recorded: fail to migrate to midline
